{"source": "patent US6524603B1", "about": "“Process and composition for the antiparasitic treatment of the surroundings of animals” (priority 1996, dated 2003)", "tested_on": "darkling beetles (Alphitobius diaperinus)", "assay": "Poultry house litter treatment, darkling beetle population monitored with 9 traps", "assay_type": "in vivo", "conditions": "water-dispersible granules 80% compound (A), 150 g/ha; during the 10th week (end of a rearing cycle)", "method": "The treatment took place on the clean litter before the poultry was installed therein. The clean litter was essentially composed of straw.\nOn the day after the treatment, a group of chicks aged 1 to 2 days was installed in the rearing house at the rate of approximately 7 animals per m^2.\nThe change in the population of darkling beetles (Alphitobius diaperinus) in the litter was regularly monitored using 9 homogeneously distributed traps. Measurements were carried out each week from the second week after the treatment until rearing was halted.\nThe total population of darkling beetles in the 9 traps of the treated poultry house varied between 11 and 96 until the 9th week after treatment whereas, in a similar but untreated poultry house, the population of darkling beetles (larvae and adults) oscillated between 1000 and 3000 at each counting point."}
{"smiles": "N#Cc1nn(-c2c(Cl)cc(C(F)(F)F)cc2Cl)c(N)c1[S+]([O-])C(F)(F)F", "note": "(stereo not shown) [compound (A), 1-[2,6-Cl2-4-CF3phenyl]-3-CN-4-[SO—CF3]-5-NH2pyrazole]", "values": [{"measurement": "control of darkling beetles", "result": 86, "unit": "%"}]}
